Experimental data taken from the NIST ThermoML archive (doi:10.1016/j.tca.2010.10.002).
± gives the expanded uncertainty stated by the source.

Conditions: Liquid, DSC

## CCCCCCCC/C=C\CCCCCCCC(=O)OCC [ethyl (Z)-9-octadeceneoate]
514.61 K
  vapor or sublimation pressure: 5.333 ± 0.53 kPa
536.83 K
  vapor or sublimation pressure: 9.333 ± 0.94 kPa

## CCCCCCCCCCCCCCCC(=O)OCC [ethyl hexadecanoate]
502.27 K
  vapor or sublimation pressure: 5.333 ± 0.53 kPa
515.13 K
  vapor or sublimation pressure: 9.333 ± 0.93 kPa

## CCCCC/C=C\C/C=C\CCCCCCCC(=O)OCC [ethyl linoleate]
537.69 K
  vapor or sublimation pressure: 9.333 ± 0.93 kPa

## CCCCCCCCCCCCCCCCCC(=O)OCC [ethyl octadecanoate]
520.56 K
  vapor or sublimation pressure: 5.333 ± 0.53 kPa

## CCCCCCCCCCCCCCCC(=O)OC [methyl hexadecanoate]
486.57 K
  vapor or sublimation pressure: 4 ± 0.4 kPa

## CCCCCCCCCCCCCC(=O)OC [methyl tetradecanoate]
459.62 K
  vapor or sublimation pressure: 4 ± 0.4 kPa
